# Measured values taken from patent US7432397B2, “Imaging compounds” (Hammersmith Imanet Ltd., priority 2002, dated 2008).
# Marks after values point to notes of the source that are not given here.
# Assay: Biodistribution of radioactivity in rat tissues after intravenous injection
# Assay type: in vivo
# Details: for Radioactivity in Cerebellum / Radioactivity in Entorhinal cortex / Radioactivity in Fat / Radioactivity in Heart (ventricle) / Radioactivity in Hippocampus / Radioactivity in Hypothalamus / Radioactivity in Inferior collicull / Radioactivity in Kidney / Radioactivity in Large intestine / Radioactivity in Lge. intestine content / Radioactivity in Liver / Radioactivity in Lung / Radioactivity in Medulla with Pons / Radioactivity in Olfactory bulbs / Radioactivity in Olfactory tubercles / Radioactivity in Prefrontal cortex / Radioactivity in Skeletal muscle / Radioactivity in Skin / Radioactivity in Sm. intestine content / Radioactivity in Small intestine / Radioactivity in Somatosensory cortex / Radioactivity in Spleen / Radioactivity in Stomach / Radioactivity in Striata / Radioactivity in Superior collicull / Radioactivity in Testis / Radioactivity in Thalamus / Radioactivity in Visual cortex / Radioactivity in Plasma / Radioactivity in Whole blood / Radioactivity in Urine: i.v.; for Radioactivity in Plasma / Radioactivity in Whole blood: composite curve of 9 rats
# Procedure: Sixteen adult male Sprague-Dawley rats (body weight 250-320 g: mean±SD=288±25 g) were used in 5 separate experiments. Each rat was injected with ˜13 MBq Compound 1, at a specific activity of […], via a previously catheterised tail vein. The associated stable compound was 0.5±0.2 nmol/kg. Discrete samples of arterial blood were collected from 9 of the rats via a previously catheterised tail artery.
# Tissues were sampled post-mortem using an established protocol, as described in Hirani et al, Synapse 42:164-176 (2001). The radioactivity concentration data obtained at 12 times up to 90 min after radioligand injection were normalised for both amount injected and body weight, giving:—‘uptake units’=(cpm/g tissue)/(injected cpm/g body weight).
smiles,measurement,setting,value
"CSc1cccc(N([11CH3])C(=N)Nc2cc(SC)ccc2Cl)c1 [Compound 1, (N-(2-chloro-5-(methylthio)phenyl)-N′-(3-methylthio)phenyl)-N′-[N-methyl-^11C]-methylguanidine]",extraction of radioactivity into the brain,following intravenous injection,high extraction
same,Radioactivity in Cerebellum,1 min,2.21 Uptake Units
same,Radioactivity in Entorhinal cortex,1 min,1.92 Uptake Units
same,Radioactivity in Fat,1 min,0.15 Uptake Units
same,Radioactivity in Heart (ventricle),1 min,10.4 Uptake Units
same,Radioactivity in Hippocampus,1 min,1.61 Uptake Units
same,Radioactivity in Hypothalamus,1 min,2.31 Uptake Units
same,Radioactivity in Inferior collicull,1 min,3.42 Uptake Units
same,Radioactivity in Kidney,1 min,12.5 Uptake Units
same,Radioactivity in Large intestine,1 min,2.71 Uptake Units
same,Radioactivity in Lge. intestine content,1 min,0.11 Uptake Units
same,Radioactivity in Liver,1 min,2.48 Uptake Units
same,Radioactivity in Lung,1 min,56.4 Uptake Units
same,Radioactivity in Medulla with Pons,1 min,2.18 Uptake Units
same,Radioactivity in Olfactory bulbs,1 min,2.34 Uptake Units
same,Radioactivity in Olfactory tubercles,1 min,2.49 Uptake Units
same,Radioactivity in Prefrontal cortex,1 min,2.52 Uptake Units
same,Radioactivity in Skeletal muscle,1 min,1.07 Uptake Units
same,Radioactivity in Skin,1 min,0.47 Uptake Units
same,Radioactivity in Sm. intestine content,1 min,4.96 Uptake Units
same,Radioactivity in Small intestine,1 min,3.38 Uptake Units
same,Radioactivity in Somatosensory cortex,1 min,2.22 Uptake Units
same,Radioactivity in Spleen,1 min,3.04 Uptake Units
same,Radioactivity in Stomach,1 min,1.60 Uptake Units
same,Radioactivity in Striata,1 min,2.13 Uptake Units
same,Radioactivity in Superior collicull,1 min,2.42 Uptake Units
same,Radioactivity in Testis,1 min,0.50 Uptake Units
same,Radioactivity in Thalamus,1 min,2.59 Uptake Units
same,Radioactivity in Visual cortex,1 min,2.46 Uptake Units
same,Radioactivity in Plasma,1 min,0.51 Uptake Units
same,Radioactivity in Whole blood,1 min,0.59 Uptake Units
same,Radioactivity in Cerebellum,2 min,2.47 Uptake Units
same,Radioactivity in Entorhinal cortex,2 min,2.13 Uptake Units
same,Radioactivity in Fat,2 min,0.18 Uptake Units
same,Radioactivity in Heart (ventricle),2 min,8.20 Uptake Units
same,Radioactivity in Hippocampus,2 min,1.73 Uptake Units
same,Radioactivity in Hypothalamus,2 min,2.29 Uptake Units
same,Radioactivity in Inferior collicull,2 min,3.65 Uptake Units
same,Radioactivity in Kidney,2 min,10.8 Uptake Units
same,Radioactivity in Large intestine,2 min,3.11 Uptake Units
same,Radioactivity in Lge. intestine content,2 min,0.21 Uptake Units
same,Radioactivity in Liver,2 min,1.65 Uptake Units
same,Radioactivity in Lung,2 min,44.5 Uptake Units
same,Radioactivity in Medulla with Pons,2 min,2.35 Uptake Units
same,Radioactivity in Olfactory bulbs,2 min,2.50 Uptake Units
same,Radioactivity in Olfactory tubercles,2 min,2.56 Uptake Units
same,Radioactivity in Prefrontal cortex,2 min,2.73 Uptake Units
same,Radioactivity in Skeletal muscle,2 min,1.14 Uptake Units
same,Radioactivity in Skin,2 min,0.54 Uptake Units
same,Radioactivity in Sm. intestine content,2 min,5.62 Uptake Units
same,Radioactivity in Small intestine,2 min,3.87 Uptake Units
same,Radioactivity in Somatosensory cortex,2 min,2.56 Uptake Units
same,Radioactivity in Spleen,2 min,2.65 Uptake Units
same,Radioactivity in Stomach,2 min,1.49 Uptake Units
same,Radioactivity in Striata,2 min,2.33 Uptake Units
same,Radioactivity in Superior collicull,2 min,2.64 Uptake Units
same,Radioactivity in Testis,2 min,0.51 Uptake Units
same,Radioactivity in Thalamus,2 min,2.41 Uptake Units
same,Radioactivity in Visual cortex,2 min,2.71 Uptake Units
same,Radioactivity in Plasma,2 min,0.37 Uptake Units
same,Radioactivity in Whole blood,2 min,0.42 Uptake Units
same,Radioactivity in Cerebellum,5 min,2.43 Uptake Units
same,Radioactivity in Entorhinal cortex,5 min,2.16 Uptake Units
same,Radioactivity in Fat,5 min,0.23 Uptake Units
same,Radioactivity in Heart (ventricle),5 min,4.27 Uptake Units
same,Radioactivity in Hippocampus,5 min,2.00 Uptake Units
same,Radioactivity in Hypothalamus,5 min,2.28 Uptake Units
same,Radioactivity in Inferior collicull,5 min,3.23 Uptake Units
same,Radioactivity in Kidney,5 min,8.70 Uptake Units
same,Radioactivity in Large intestine,5 min,2.73 Uptake Units
same,Radioactivity in Lge. intestine content,5 min,0.13 Uptake Units
same,Radioactivity in Liver,5 min,2.95 Uptake Units
same,Radioactivity in Lung,5 min,38.7 Uptake Units
same,Radioactivity in Medulla with Pons,5 min,2.34 Uptake Units
same,Radioactivity in Olfactory bulbs,5 min,2.18 Uptake Units
same,Radioactivity in Olfactory tubercles,5 min,2.42 Uptake Units
same,Radioactivity in Prefrontal cortex,5 min,2.67 Uptake Units
same,Radioactivity in Skeletal muscle,5 min,1.32 Uptake Units
same,Radioactivity in Skin,5 min,0.61 Uptake Units
same,Radioactivity in Sm. intestine content,5 min,6.84 Uptake Units
same,Radioactivity in Small intestine,5 min,3.17 Uptake Units
same,Radioactivity in Somatosensory cortex,5 min,2.69 Uptake Units
same,Radioactivity in Spleen,5 min,3.85 Uptake Units
same,Radioactivity in Stomach,5 min,1.26 Uptake Units
same,Radioactivity in Striata,5 min,2.35 Uptake Units
same,Radioactivity in Superior collicull,5 min,2.59 Uptake Units
same,Radioactivity in Testis,5 min,0.56 Uptake Units
same,Radioactivity in Thalamus,5 min,2.59 Uptake Units
same,Radioactivity in Urine,5 min,11.7 Uptake Units
same,Radioactivity in Visual cortex,5 min,3.05 Uptake Units
same,Radioactivity in Plasma,5 min,0.24 Uptake Units
same,Radioactivity in Whole blood,5 min,0.26 Uptake Units
same,Radioactivity in Cerebellum,10 min,2.08 Uptake Units
same,Radioactivity in Entorhinal cortex,10 min,2.04 Uptake Units
same,Radioactivity in Fat,10 min,0.50 Uptake Units
same,Radioactivity in Heart (ventricle),10 min,2.20 Uptake Units
same,Radioactivity in Hippocampus,10 min,1.81 Uptake Units
same,Radioactivity in Hypothalamus,10 min,2.13 Uptake Units
same,Radioactivity in Inferior collicull,10 min,2.69 Uptake Units
same,Radioactivity in Kidney,10 min,5.72 Uptake Units
same,Radioactivity in Large intestine,10 min,1.92 Uptake Units
same,Radioactivity in Lge. intestine content,10 min,0.17 Uptake Units
same,Radioactivity in Liver,10 min,4.38 Uptake Units
same,Radioactivity in Lung,10 min,35.3 Uptake Units
same,Radioactivity in Medulla with Pons,10 min,2.26 Uptake Units
same,Radioactivity in Olfactory bulbs,10 min,1.91 Uptake Units
same,Radioactivity in Olfactory tubercles,10 min,2.14 Uptake Units
same,Radioactivity in Prefrontal cortex,10 min,2.52 Uptake Units
same,Radioactivity in Skeletal muscle,10 min,1.05 Uptake Units
same,Radioactivity in Skin,10 min,0.70 Uptake Units
same,Radioactivity in Sm. intestine content,10 min,5.31 Uptake Units
same,Radioactivity in Small intestine,10 min,2.49 Uptake Units
same,Radioactivity in Somatosensory cortex,10 min,2.49 Uptake Units
same,Radioactivity in Spleen,10 min,4.31 Uptake Units
same,Radioactivity in Stomach,10 min,0.82 Uptake Units
same,Radioactivity in Striata,10 min,2.17 Uptake Units
same,Radioactivity in Superior collicull,10 min,2.35 Uptake Units
same,Radioactivity in Testis,10 min,0.66 Uptake Units
same,Radioactivity in Thalamus,10 min,2.39 Uptake Units
same,Radioactivity in Urine,10 min,10.9 Uptake Units
same,Radioactivity in Visual cortex,10 min,2.80 Uptake Units
same,Radioactivity in Plasma,10 min,0.19 Uptake Units
same,Radioactivity in Whole blood,10 min,0.21 Uptake Units
same,Radioactivity in Cerebellum,15 min,1.81 Uptake Units
same,Radioactivity in Entorhinal cortex,15 min,1.93 Uptake Units
same,Radioactivity in Fat,15 min,0.75 Uptake Units
same,Radioactivity in Heart (ventricle),15 min,1.63 Uptake Units
same,Radioactivity in Hippocampus,15 min,1.74 Uptake Units
same,Radioactivity in Hypothalamus,15 min,1.85 Uptake Units
same,Radioactivity in Inferior collicull,15 min,2.22 Uptake Units
same,Radioactivity in Kidney,15 min,4.78 Uptake Units
same,Radioactivity in Large intestine,15 min,1.65 Uptake Units
same,Radioactivity in Lge. intestine content,15 min,0.03 Uptake Units
same,Radioactivity in Liver,15 min,6.87 Uptake Units
same,Radioactivity in Lung,15 min,10.7 Uptake Units
same,Radioactivity in Medulla with Pons,15 min,1.92 Uptake Units
same,Radioactivity in Olfactory bulbs,15 min,1.72 Uptake Units
same,Radioactivity in Olfactory tubercles,15 min,1.92 Uptake Units
same,Radioactivity in Prefrontal cortex,15 min,2.32 Uptake Units
same,Radioactivity in Skeletal muscle,15 min,1.07 Uptake Units
same,Radioactivity in Skin,15 min,0.51 Uptake Units
same,Radioactivity in Sm. intestine content,15 min,9.63 Uptake Units
same,Radioactivity in Small intestine,15 min,2.79 Uptake Units
same,Radioactivity in Somatosensory cortex,15 min,2.24 Uptake Units
same,Radioactivity in Spleen,15 min,4.46 Uptake Units
same,Radioactivity in Stomach,15 min,2.07 Uptake Units
same,Radioactivity in Striata,15 min,1.92 Uptake Units
same,Radioactivity in Superior collicull,15 min,2.01 Uptake Units
same,Radioactivity in Testis,15 min,0.66 Uptake Units
same,Radioactivity in Thalamus,15 min,2.21 Uptake Units
same,Radioactivity in Urine,15 min,22.0 Uptake Units
same,Radioactivity in Visual cortex,15 min,2.28 Uptake Units
same,Radioactivity in Plasma,15 min,0.17 Uptake Units
same,Radioactivity in Whole blood,15 min,0.19 Uptake Units
same,Radioactivity in Cerebellum,20 min,1.45* Uptake Units
same,Radioactivity in Entorhinal cortex,20 min,1.80 Uptake Units
same,Radioactivity in Fat,20 min,0.40* Uptake Units
same,Radioactivity in Heart (ventricle),20 min,1.10* Uptake Units
same,Radioactivity in Hippocampus,20 min,1.60 Uptake Units
same,Radioactivity in Hypothalamus,20 min,1.67 Uptake Units
same,Radioactivity in Inferior collicull,20 min,1.97 Uptake Units
same,Radioactivity in Kidney,20 min,3.19* Uptake Units
same,Radioactivity in Large intestine,20 min,1.27* Uptake Units
same,Radioactivity in Lge. intestine content,20 min,0.28* Uptake Units
same,Radioactivity in Liver,20 min,6.47* Uptake Units
same,Radioactivity in Lung,20 min,14.0* Uptake Units
same,Radioactivity in Medulla with Pons,20 min,1.68 Uptake Units
same,Radioactivity in Olfactory bulbs,20 min,1.46 Uptake Units
same,Radioactivity in Olfactory tubercles,20 min,1.73 Uptake Units
same,Radioactivity in Prefrontal cortex,20 min,1.94* Uptake Units
same,Radioactivity in Skeletal muscle,20 min,0.96* Uptake Units
same,Radioactivity in Skin,20 min,0.68* Uptake Units
same,Radioactivity in Sm. intestine content,20 min,6.08* Uptake Units
same,Radioactivity in Small intestine,20 min,2.16* Uptake Units
same,Radioactivity in Somatosensory cortex,20 min,2.03 Uptake Units
same,Radioactivity in Spleen,20 min,3.26* Uptake Units
same,Radioactivity in Stomach,20 min,0.67* Uptake Units
same,Radioactivity in Striata,20 min,1.65* Uptake Units
same,Radioactivity in Superior collicull,20 min,1.64 Uptake Units
same,Radioactivity in Testis,20 min,0.73* Uptake Units
same,Radioactivity in Thalamus,20 min,2.01 Uptake Units
same,Radioactivity in Urine,20 min,10.7* Uptake Units
same,Radioactivity in Visual cortex,20 min,2.07 Uptake Units
same,Radioactivity in Plasma,20 min,0.17 Uptake Units
same,Radioactivity in Whole blood,20 min,0.18 Uptake Units
same,Radioactivity in Cerebellum,30 min,0.55 Uptake Units
